In patent US20070010671A1, “Novel quinazoline derivatives and methods of treatment related to the use thereof” (priority 2003, published 2007):

Target: MCH receptor (Homo sapiens, UniProt Q99705)
Assay: High throughput functional screening FLIPR/FDSS6000: inhibition of MCH-evoked intracellular Ca2+ changes
Type: cell-based
Conditions: class by percent of control at 10^-7 M or IC50
Outline: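 Cells expressing constitutively active MCH receptor, loaded with 4 μM Fluo4-AM for 1 h at 37 °C, were pretreated 3 min with compound, then challenged with MCH (50 nM for antagonist testing). MCH-evoked [Ca2+]i transients followed by FLIPR or FDSS (ex 488/em 530 nm) over 290 s.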

Structure (SMILES)	class
CN(C)c1nc(N[C@H]2CC[C@@H](NC(=S)NCc3ccc(Cl)cc3)CC2)nc2ccccc12 [compound 271]	3 (Class 3: The value of percent of control at 10^−7 M was more than 60% or the value of IC50 was more than 200 nM.)
CCOC(=O)c1ccc(NC(=S)N[C@H]2CC[C@@H](Nc3nc(N(C)C)c4ccccc4n3)CC2)cc1 [compound 272]	3 (Class 3: The value of percent of control at 10^−7 M was more than 60% or the value of IC50 was more than 200 nM.)
CN(C)c1nc(N[C@H]2CC[C@@H](NC(=S)NCc3ccc(F)cc3)CC2)nc2ccccc12 [compound 274, N-(cis-4-{[4-(dimethylamino)quinazolin-2-yl]amino}cyclohexyl)-N′-(4-fluorobenzyl)thiourea]	2 (Class 2: The value of percent of control at 10^−7 M was from 40% to 60% or the value of IC50 was from 50 nM to 200 nM.)
CC(C)c1ccc(NC(=S)N[C@H]2CC[C@@H](Nc3nc(N(C)C)c4ccccc4n3)CC2)cc1 [compound 275, N-(cis-4-{[4-(dimethylamino)quinazolin-2-yl]amino}cyclohexyl)-N′-(4-isopropylphenyl)thiourea]	2 (Class 2: The value of percent of control at 10^−7 M was from 40% to 60% or the value of IC50 was from 50 nM to 200 nM.)
COc1ccc(NC(=S)N[C@H]2CC[C@@H](Nc3nc(N(C)C)c4ccccc4n3)CC2)c([N+](=O)[O-])c1 [compound 276]	3 (Class 3: The value of percent of control at 10^−7 M was more than 60% or the value of IC50 was more than 200 nM.)
COc1ccc(CNC(=S)N[C@H]2CC[C@@H](Nc3nc(N(C)C)c4ccccc4n3)CC2)cc1 [compound 277, N-(cis-4-{[4-(dimethylamino)quinazolin-2-yl]amino}cyclohexyl)-N′-(4-methoxybenzyl)thiourea]	2 (Class 2: The value of percent of control at 10^−7 M was from 40% to 60% or the value of IC50 was from 50 nM to 200 nM.)
COC(=O)c1ccc(NC(=S)N[C@H]2CC[C@@H](Nc3nc(N(C)C)c4ccccc4n3)CC2)cc1 [compound 278]	2 (Class 2: The value of percent of control at 10^−7 M was from 40% to 60% or the value of IC50 was from 50 nM to 200 nM.)
Cc1ccc(NC(=S)N[C@H]2CC[C@@H](Nc3nc(N(C)C)c4ccccc4n3)CC2)c([N+](=O)[O-])c1 [compound 279]	3 (Class 3: The value of percent of control at 10^−7 M was more than 60% or the value of IC50 was more than 200 nM.)
Cc1ccc(CNC(=S)N[C@H]2CC[C@@H](Nc3nc(N(C)C)c4ccccc4n3)CC2)cc1 [compound 280]	3 (Class 3: The value of percent of control at 10^−7 M was more than 60% or the value of IC50 was more than 200 nM.)
CCCCc1ccc(NC(=S)N[C@H]2CC[C@@H](Nc3nc(N(C)C)c4ccccc4n3)CC2)cc1 [compound 281]	3 (Class 3: The value of percent of control at 10^−7 M was more than 60% or the value of IC50 was more than 200 nM.)
COc1ccc(Cl)cc1NC(=S)N[C@H]1CC[C@@H](Nc2nc(N(C)C)c3ccccc3n2)CC1 [compound 282]	3 (Class 3: The value of percent of control at 10^−7 M was more than 60% or the value of IC50 was more than 200 nM.)
CN(C)c1nc(N[C@H]2CC[C@@H](NC(=S)NC(c3ccccc3)c3ccccc3)CC2)nc2ccccc12 [compound 284, N-(cis-4-{[4-(dimethylamino)quinazolin-2-yl]amino}cyclohexyl)-N′-(diphenylmethyl)thiourea]	2 (Class 2: The value of percent of control at 10^−7 M was from 40% to 60% or the value of IC50 was from 50 nM to 200 nM.)
CN(C)c1nc(N[C@H]2CC[C@@H](NC(=S)NC3CCCCCCCCCCC3)CC2)nc2ccccc12 [compound 285]	3 (Class 3: The value of percent of control at 10^−7 M was more than 60% or the value of IC50 was more than 200 nM.)
CN(C)c1nc(N[C@H]2CC[C@@H](NC(=S)NCC3CCCCC3)CC2)nc2ccccc12 [compound 286, N-(cyclohexylmethyl)-N′-(cis-4-{[4-(dimethylamino)quinazolin-2-yl]amino}cyclohexyl)thiourea]	2 (Class 2: The value of percent of control at 10^−7 M was from 40% to 60% or the value of IC50 was from 50 nM to 200 nM.)
CN(C)c1nc(N[C@H]2CC[C@@H](NC(=S)NC3CCCCCCC3)CC2)nc2ccccc12 [compound 287, N-cyclooctyl-N′-(cis-4-{[4-(dimethylamino)quinazolin-2-yl]amino}cyclohexyl)thiourea]	2 (Class 2: The value of percent of control at 10^−7 M was from 40% to 60% or the value of IC50 was from 50 nM to 200 nM.)
CN(C)c1nc(N[C@H]2CC[C@@H](NC(=S)NC3CC3)CC2)nc2ccccc12 [compound 288, N-cyclopropyl-N′-(cis-4-{[4-(dimethylamino)quinazolin-2-yl]amino}cyclohexyl)thiourea]	2 (Class 2: The value of percent of control at 10^−7 M was from 40% to 60% or the value of IC50 was from 50 nM to 200 nM.)

Structure (SMILES)	class
CN(C)c1nc(N[C@H]2CC[C@@H](NC(=S)NCc3cccc4ccccc34)CC2)nc2ccccc12 [compound 289, N-(cis-4-{[4-(dimethylamino)quinazolin-2-yl]amino}cyclohexyl)-N′-(1-naphthylmethyl)thiourea]	1 (Class 1: The value of percent of control at 10^−7 M was less than 40% or the value of IC50 was less than 50 nM.)
CN(C)c1nc(N[C@H]2CC[C@@H](NC(=S)NCC(c3ccccc3)c3ccccc3)CC2)nc2ccccc12 [compound 290, N-(cis-4-{[4-(dimethylamino)quinazolin-2-yl]amino}cyclohexyl)-N′-(2,2-diphenylethyl)thiourea]	2 (Class 2: The value of percent of control at 10^−7 M was from 40% to 60% or the value of IC50 was from 50 nM to 200 nM.)
CN(C)c1nc(N[C@H]2CC[C@@H](NC(=S)Nc3c(Cl)c(Cl)cc(Cl)c3Cl)CC2)nc2ccccc12 [compound 291]	3 (Class 3: The value of percent of control at 10^−7 M was more than 60% or the value of IC50 was more than 200 nM.)
COc1cccc(CNC(=S)N[C@H]2CC[C@@H](Nc3nc(N(C)C)c4ccccc4n3)CC2)c1OC [compound 292, N-(2,3-dimethoxybenzyl)-N′-(cis-4-{[4-(dimethylamino)quinazolin-2-yl]amino}cyclohexyl)thiourea]	1 (Class 1: The value of percent of control at 10^−7 M was less than 40% or the value of IC50 was less than 50 nM.)
Cc1cc(C)c(NC(=S)N[C@H]2CC[C@@H](Nc3nc(N(C)C)c4ccccc4n3)CC2)cc1C [compound 293, N-(cis-4-{[4-(dimethylamino)quinazolin-2-yl]amino}cyclohexyl)-N′-(2,4,5-trimethylphenyl)thiourea]	1 (Class 1: The value of percent of control at 10^−7 M was less than 40% or the value of IC50 was less than 50 nM.)
CN(C)c1nc(N[C@H]2CC[C@@H](NC(=S)NCc3ccc(Cl)cc3Cl)CC2)nc2ccccc12 [compound 294]	3 (Class 3: The value of percent of control at 10^−7 M was more than 60% or the value of IC50 was more than 200 nM.)
CN(C)c1nc(N[C@H]2CC[C@@H](NC(=S)Nc3cc(Br)ccc3Br)CC2)nc2ccccc12 [compound 295]	3 (Class 3: The value of percent of control at 10^−7 M was more than 60% or the value of IC50 was more than 200 nM.)
COc1ccc(OC)c(CCNC(=S)N[C@H]2CC[C@@H](Nc3nc(N(C)C)c4ccccc4n3)CC2)c1 [compound 296, N-[2-(2,5-dimethoxyphenyl)ethyl]-N′-(cis-4-{[4-(dimethylamino)quinazolin-2-yl]amino}cyclohexyl)thiourea]	2 (Class 2: The value of percent of control at 10^−7 M was from 40% to 60% or the value of IC50 was from 50 nM to 200 nM.)
CN(C)c1nc(N[C@H]2CC[C@@H](NC(=S)Nc3ccccc3-c3ccccc3)CC2)nc2ccccc12 [compound 297, N-biphenyl-2-yl-N′-(cis-4-{[4-(dimethylamino)quinazolin-2-yl]amino}cyclohexyl)thiourea]	1 (Class 1: The value of percent of control at 10^−7 M was less than 40% or the value of IC50 was less than 50 nM.)
CN(C)c1nc(N[C@H]2CC[C@@H](NC(=S)Nc3cc([N+](=O)[O-])ccc3Cl)CC2)nc2ccccc12 [compound 298]	3 (Class 3: The value of percent of control at 10^−7 M was more than 60% or the value of IC50 was more than 200 nM.)
CN(C)c1nc(N[C@H]2CC[C@@H](NC(=S)Nc3ccccc3C#N)CC2)nc2ccccc12 [compound 299]	3 (Class 3: The value of percent of control at 10^−7 M was more than 60% or the value of IC50 was more than 200 nM.)
CN(C)c1nc(N[C@H]2CC[C@@H](NC(=S)NCc3ccccc3F)CC2)nc2ccccc12 [compound 300]	2 (Class 2: The value of percent of control at 10^−7 M was from 40% to 60% or the value of IC50 was from 50 nM to 200 nM.)
COc1ccc([N+](=O)[O-])cc1NC(=S)N[C@H]1CC[C@@H](Nc2nc(N(C)C)c3ccccc3n2)CC1 [compound 301]	3 (Class 3: The value of percent of control at 10^−7 M was more than 60% or the value of IC50 was more than 200 nM.)
Cc1cc([N+](=O)[O-])ccc1NC(=S)N[C@H]1CC[C@@H](Nc2nc(N(C)C)c3ccccc3n2)CC1 [compound 302, N-(cis-4-{[4-(dimethylamino)quinazolin-2-yl]amino}cyclohexyl)-N′-(2-methyl-4-nitrophenyl)thiourea]	1 (Class 1: The value of percent of control at 10^−7 M was less than 40% or the value of IC50 was less than 50 nM.)
Cc1ccccc1CNC(=S)N[C@H]1CC[C@@H](Nc2nc(N(C)C)c3ccccc3n2)CC1 [compound 303, N-(cis-4-{[4-(dimethylamino)quinazolin-2-yl]amino}cyclohexyl)-N′-(2-methylbenzyl)thiourea]	2 (Class 2: The value of percent of control at 10^−7 M was from 40% to 60% or the value of IC50 was from 50 nM to 200 nM.)
COc1ccc(CNC(=S)N[C@H]2CC[C@@H](Nc3nc(N(C)C)c4ccccc4n3)CC2)cc1OC [compound 304]	3 (Class 3: The value of percent of control at 10^−7 M was more than 60% or the value of IC50 was more than 200 nM.)
